From publication PMC9269301, “Phytochemical Analysis, Antioxidant, Antimicrobial, and Cytotoxic Activity of Different Extracts of Xanthoparmelia stenophylla Lichen from Stara Planina, Serbia” (Plants, 2022)
Converted amounts (≈) assume the structure as drawn. Where two headings read alike, the source gives them in different places.

Tests used:
S. Typhimurium (isolate) = assay: Microdilution with resazurin, antibacterial; type: cell-based, Salmonella Typhimurium
Experimental: (§1) The tested methanol, acetone, and n-hexane extracts, as well as the component (usnic acid) of X. stenophylla, were dissolved in 10% dimethyl sulfoxide (DMSO) and then diluted into the nutrient liquid medium. DMSO was obtained from Acros Organics (Fair Lawn, NJ, USA). Resazurin was obtained from Alfa Aesar GmbH & Co. (KG, Karlsruhe, Germany).
(§2) The antimicrobial activity of the extracts and components was tested against 19 microorganisms. The experiment involved 15 strains of bacteria (i.e., 6 standard strains: Staphylococcus aureus ATCC 6538, Bacillus subtilis ATCC 6633, Proteus mirabilis ATCC 12453, Pseudomonas aeruginosa ATCC 27853, Klebsiella pneumoniae ATCC 70063, and Escherichia coli ATCC 25922; 9 isolates: Staphylococcus aureus, Escherichia coli, Salmonella enterica, Salmonella Typhimurium, Proteus mirabilis, Klebsiella pneumoniae, Pseudomonas aeruginosa, Bacillus subtilis, and Bacillus cereus). In addition, four fungal strains (i.e., two standard strains: Candida albicans ATCC 10231 and Aspergillus niger ATCC 16888; two isolates: Saccharomyces cerevisiae and Candida albicans) were tested. All isolates were a generous gift from the Institute of Public Health, Kragujevac. The other microorganisms were provided from the collection held by the Microbiology Laboratory Faculty of Science, University of Kragujevac.
(§3) The bacterial suspensions were prepared by the direct colony method. The turbidity of the initial suspension was adjusted using a densitometer (DEN-1, BioSan, Riga, Latvia). When adjusted to the turbidity of the 0.5 McFarland’s standard (Andrews, 2005) the bacteria suspension contained approximately 10^8 colony-forming units (CFU)/mL, and the suspension of yeast contained 10^6 CFU/mL; 1:100 dilutions of the initial suspension were additionally prepared in sterile 0.85% saline. The suspensions of fungal spores were prepared by gentle stripping of spores from slopes with growing mycelia. The resulting suspensions were 1:1000 diluted in sterile 0.85% saline.
(§4) Antimicrobial activity was tested by determining the minimum inhibitory concentrations (MICs) and minimum microbicidal concentrations (MBCs) using the microdilution plate method with resazurin [56]. The 96-well plates were prepared by dispensing 100 μL of Mueller–Hinton broth for bacteria and Sabouard broth for fungi into each well. A 10 μL aliquot from the stock solution of the tested extract or component was added to the first row of the plate. Then, two-fold serial dilutions were performed using a multichannel pipette. The obtained concentration range was from 10 to 0.08 mg/mL. The method is described in detail in [76].
(§5) Each test included growth control and sterility control.
(§6) Minimum microbicidal concentrations were determined by plating 10 μL of samples from wells where no indicator color change or no mycelia growth was recorded on a nutrient agar medium. At the end of the incubation period, the lowest concentration with no growth (no colony) was defined as the minimum microbicidal concentration.

S. enterica (isolate) = assay: microbe, parasite or virus in culture; type: cell-based, Salmonella enterica
Experimental: as §1, §2, §3, §4, §5, §6

P. aeruginosa (isolate) = assay: Microdilution with resazurin, antibacterial; type: cell-based, Pseudomonas aeruginosa
Experimental: as §1, §2, §3, §4, §5, §6

P. aeruginosa ATCC 27853 = assay: Microdilution with resazurin, antibacterial; type: cell-based, Pseudomonas aeruginosa
Experimental: as §1, §2, §3, §4, §5, §6

P. aeruginosa biofilm = assay: Antibiofilm activity (biofilm formation, crystal violet); type: cell-based, Pseudomonas aeruginosa; details: P. aeruginosa, 37 °C, 48 h
Experimental: The ability of S. aureus ATCC 6538 and P. aeruginosa to form biofilms was assayed as described by O’Toole et al. with some modifications. Briefly, the tissue culture of 96-well microtiter plates (Sarstedt, Germany) were prepared by dispensing 100 µL of nutrient broth (i.e., Mueller–Hinton broth) into each well. Ten microliters of spore suspension (10^8 colony-forming units (CFU)/mL) was added into each row. […] Biofilms formed by adherent cells in 96-well microtiter plates were stained with crystal violet (0.1% w/v; Fluka AG, Buchs, Switzerland) and incubated at room temperature for 20 min. Excess stain was rinsed off by thorough washing with deionized water and then with […] of 96% ethanol. Optical densities (ODs) of stained adherent bacteria were determined with an enzyme-linked immunosorbent assay (ELISA) plate reader (RT-2100C, Rayto, Shenzhen, China) at a 630 nm wavelength. Only broth served as a control to check sterility and nonspecific binding of media. To compensate for background absorbance, OD readings from sterile medium, fixative, and dye were averaged and subtracted from all test values. All tests were performed in duplicate. The tissue culture of 96-well microtiter plates (Sarstedt, Nümbrecht, Germany) were prepared by dispensing 100 µL of nutrient broth (i.e., Mueller–Hinton broth) into each well. From the stock solution of the tested extracts or components (concentration: 20 mg/mL), 100 µL was added to the first row of the microtiter plate. Two-fold serial dilutions were then made using a multichannel pipette, following which 10 µL of fresh bacterial suspension was added to each well. The inoculated microtiter plates were incubated at 37 °C for 48 h. After incubation, the content of each well was gently removed by tapping the microtiter plates. […] Biofilms formed by adherent cells in 96-well microtiter plates were stained with crystal violet (0.1% w/v; Fluka AG, Switzerland) and incubated at room temperature for 20 min. Excess stain was rinsed off by thorough washing with deionized water and then with […] densities (ODs) of stained adherent bacteria were determined with an enzyme-linked immunosorbent assay (ELISA) plate reader at a 630 nm wavelength. […] Only broth or broth with extracts served as a control to check the sterility and nonspecific binding of media. To compensate for background absorbance, OD readings from sterile medium, extracts, fixative, and dye were averaged and subtracted from all test values. All tests were performed in duplicate.

B. cereus (isolate) = assay: Microdilution with resazurin, antibacterial; type: cell-based, Bacillus cereus
Experimental: as §1, §2, §3, §4, §5, §6

E. coli ATCC 25922 = assay: Microdilution with resazurin, antibacterial; type: cell-based, Escherichia coli
Experimental: as §1, §2, §3, §4, §5, §6

E. coli (isolate) = assay: Microdilution with resazurin, antibacterial; type: cell-based, Escherichia coli
Experimental: as §1, §2, §3, §4, §5, §6

P. mirabilis (isolate) = assay: Microdilution with resazurin, antibacterial; type: cell-based, Proteus mirabilis
Experimental: as §1, §2, §3, §4, §5, §6

P. mirabilis ATCC 12453 = assay: Microdilution with resazurin, antibacterial; type: cell-based, Proteus mirabilis
Experimental: as §1, §2, §3, §4, §5, §6

S. aureus ATCC 6538 = assay: Microdilution with resazurin, antibacterial; type: cell-based, Staphylococcus aureus
Experimental: as §1, §2, §3, §4, §5, §6

S. aureus (isolate) = assay: Microdilution with resazurin, antibacterial; type: cell-based, Staphylococcus aureus
Experimental: as §1, §2, §3, §4, §5, §6

[1] = S. enterica, extracts and usnic acid

CN(C)[C@@H]1C(O)=C(C(N)=O)C(=O)[C@@]2(O)C(O)=C3C(=O)c4c(O)cccc4[C@@](C)(O)[C@H]3C[C@@H]12 [TC, tetracycline]
MBC (S. Typhimurium (isolate); Salmonella enterica, antibiotics, read-out: MBC): 2 µg/mL (≈ 4.5 µM)
MBC (S. enterica (isolate); Salmonella enterica): 2 µg/mL (≈ 4.5 µM)
MBC (P. aeruginosa (isolate); Pseudomonas aeruginosa, antibiotics, read-out: MBC): > 128 µg/mL
MIC (P. aeruginosa (isolate); Pseudomonas aeruginosa, antibiotics, read-out: MIC): > 128 µg/mL
MBC (P. aeruginosa ATCC 27853; Pseudomonas aeruginosa, ATCC27853, antibiotics, read-out: MBC): 32 µg/mL (≈ 72 µM)
MIC (P. aeruginosa ATCC 27853; Pseudomonas aeruginosa, ATCC27853, antibiotics, read-out: MIC): 4 µg/mL (≈ 9 µM)
BIC90 (biofilm inhibitory concentration, 90% reduction of biofilm coverage) (P. aeruginosa biofilm): >1000 µg/mL
IC50 (P. aeruginosa biofilm; Pseudomonas aeruginosa, read-out: BIC50 (biofilm inhibitory concentration, 50% reduction of biofilm coverage)): > 1000 µg/mL
MBC (B. cereus (isolate); Bacillus cereus, antibiotics, read-out: MBC): 0.5 µg/mL (≈ 1.13 µM)
MIC (B. cereus (isolate); Bacillus cereus, antibiotics, read-out: MIC): 0.25 µg/mL (≈ 0.563 µM)
MBC (E. coli ATCC 25922; Escherichia coli, ATCC25922, antibiotics, read-out: MBC): 6 µg/mL (≈ 13.5 µM)
MIC (E. coli ATCC 25922; Escherichia coli, ATCC25922, antibiotics, read-out: MIC): 4 µg/mL (≈ 9 µM)
MBC (E. coli (isolate); Escherichia coli, antibiotics, read-out: MBC): 6 µg/mL (≈ 13.5 µM)
MIC (E. coli (isolate); Escherichia coli, antibiotics, read-out: MIC): 2 µg/mL (≈ 4.5 µM)
MBC (P. mirabilis (isolate); Proteus mirabilis, antibiotics, read-out: MBC): > 128 µg/mL
MIC (P. mirabilis (isolate); Proteus mirabilis, antibiotics, read-out: MIC): > 128 µg/mL
MBC (P. mirabilis ATCC 12453; Proteus mirabilis, ATCC12453, antibiotics, read-out: MBC): 4 µg/mL (≈ 9 µM)
MIC (P. mirabilis ATCC 12453; Proteus mirabilis, ATCC12453, antibiotics, read-out: MIC): 2 µg/mL (≈ 4.5 µM)
MBC (S. aureus ATCC 6538; Staphylococcus aureus, ATCC6538, antibiotics, read-out: MBC): 6 µg/mL (≈ 13.5 µM)
MIC (S. aureus ATCC 6538; Staphylococcus aureus, ATCC6538, antibiotics, read-out: MIC): 3 µg/mL (≈ 6.75 µM)
MBC (S. aureus (isolate); Staphylococcus aureus, antibiotics, read-out: MBC): < 0.06 µg/mL
MIC (S. aureus (isolate); Staphylococcus aureus, antibiotics, read-out: MIC): < 0.06 µg/mL

usnic acid
MBC (S. Typhimurium (isolate); extracts and usnic acid): <10000 µg/mL
MIC (S. Typhimurium (isolate); extracts and usnic acid): <10000 µg/mL
MBC (S. enterica (isolate); [1]): <10000 µg/mL
MIC (S. enterica (isolate); [1]): <10000 µg/mL
MBC (P. aeruginosa (isolate); extracts and usnic acid): <10000 µg/mL
MIC (P. aeruginosa (isolate); extracts and usnic acid): 10000 µg/mL
MBC (P. aeruginosa ATCC 27853; extracts and usnic acid): <10000 µg/mL
MIC (P. aeruginosa ATCC 27853; extracts and usnic acid): 10000 µg/mL
BIC50 (biofilm inhibitory concentration, 50% reduction of biofilm coverage) (P. aeruginosa biofilm): > 10,000 µg/mL
BIC90 (biofilm inhibitory concentration, 90% reduction of biofilm coverage) (P. aeruginosa biofilm): > 10,000 µg/mL
BIC50 (biofilm inhibitory concentration, 50% reduction of biofilm coverage) (P. aeruginosa biofilm; listed as UA): <10,000 µg/mL
BIC90 (biofilm inhibitory concentration, 90% reduction of biofilm coverage) (P. aeruginosa biofilm; listed as UA): <10,000 µg/mL
MBC (B. cereus (isolate); extracts and usnic acid): <80 µg/mL
MIC (B. cereus (isolate); extracts and usnic acid): <80 µg/mL
MBC (E. coli ATCC 25922; extracts and usnic acid): <10000 µg/mL
MIC (E. coli ATCC 25922; extracts and usnic acid): <10000 µg/mL
MBC (E. coli (isolate); extracts and usnic acid): <10000 µg/mL
MIC (E. coli (isolate); extracts and usnic acid): <10000 µg/mL
MBC (P. mirabilis (isolate); extracts and usnic acid): <10000 µg/mL
MIC (P. mirabilis (isolate); extracts and usnic acid): <10000 µg/mL
MBC (P. mirabilis ATCC 12453; extracts and usnic acid): <10000 µg/mL
MIC (P. mirabilis ATCC 12453; extracts and usnic acid): <10000 µg/mL
MBC (S. aureus ATCC 6538; extracts and usnic acid): 625 µg/mL
MIC (S. aureus ATCC 6538; extracts and usnic acid): 312.5 µg/mL
MBC (S. aureus (isolate); extracts and usnic acid): 156 µg/mL
MIC (S. aureus (isolate); extracts and usnic acid): 156 µg/mL
